Test system: arylamidase activity
Assay: Inhibitory effect of 5NSA on arylamidase activity (initial hydrolytic rates with and without added 5NSA)
Type: biochemical
Text: At 10 mmol/liter, 50% inhibition of all enzyme activities occurs. Interfering side reactions with 5NSA may occur. The compound reacts with both aliphatic and aromatic amine groups to form Schiff-Base complexes. Particularly susceptible are proteins containing lysine and glutamine. […] Cell proteins react at higher concentrations, i.e., above 1 mmol/liter of 5NSA, to form a blue-green fluorescence, which may account for as much as 15% of the cellular fluorescence at 530 nm. Use of appropriate filters to block out green fluorescence will block out the nonspecific cell protein reaction with 5NSA.

[1] = 1 mmol/liter 5NSA, initial hydrolytic rate with vs without 5NSA

Effect on Carbobenzoxy-arg-arg-4M2NA hydrolysis [1]: not affected significantly | Effect on Lys-Ala-4M2NA activity [1]: not affected significantly | inhibition of all enzyme activities (10 mmol/liter 5NSA): 50%
Structure (SMILES): O=Cc1cc([N+](=O)[O-])ccc1O [5NSA, 5-nitrosalicylaldehyde]

— patent US4229528A, “Fluorescence method for enzyme analysis which couples aromatic amines with aromatic aldehydes” (priority 1978, dated 1980)
